Key:
RIP1 = target: T1, RIP1 (Homo sapiens, UniProt Q13546); assay: Fluorescent polarization based binding assay (FP Binding Assay); conditions: His-GST-RipK1(1-375) 10 nM, fluorescent labeled ligand 5 nM
T1 construct: His-GST-RipK1(1-375) was purified from a Baculovirus expression system; His (N); GST (N); made in house
T1 sequence (Q13546 1-375): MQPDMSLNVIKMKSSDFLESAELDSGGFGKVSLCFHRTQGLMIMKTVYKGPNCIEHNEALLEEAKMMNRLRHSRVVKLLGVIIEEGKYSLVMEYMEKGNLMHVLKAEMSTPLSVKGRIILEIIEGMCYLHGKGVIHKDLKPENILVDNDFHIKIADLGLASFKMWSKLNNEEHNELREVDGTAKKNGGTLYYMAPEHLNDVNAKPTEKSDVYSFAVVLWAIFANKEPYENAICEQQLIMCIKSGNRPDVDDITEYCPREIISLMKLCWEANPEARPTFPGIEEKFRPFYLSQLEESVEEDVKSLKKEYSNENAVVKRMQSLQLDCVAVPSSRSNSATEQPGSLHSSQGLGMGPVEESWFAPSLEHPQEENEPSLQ
Description: In vitro Assay: A fluorescent polarization based binding assay was developed to quantitate interaction of novel test compounds at the ATP binding pocket of RIP1, by competition with a fluorescently labeled ATP competitive ligand. […] Test compounds were prepared in neat DMSO and 100 nL was dispensed to individual wells of a multiwell plate. […] Following the incubation, 5 μL of the fluorescent labeled ligand solution, was added to each reaction, at twice the final assay concentration, and incubated at room temperature for at least 15 minutes. Finally, samples were read on an instrument capable of measuring fluorescent polarization. Test compound inhibition was expressed as percent inhibition of internal assay controls. For concentration response experiments, normalized data were fit and pIC50 values determined using conventional techniques.

H-22 = assay: Syngeneic subcutaneous tumor model H-22; assay type: in vivo, mouse; conditions: H-22 model; Example 6 40 mg/kg p.o. BID up to 21 days
Description: The efficacy of RIP1 inhibition was tested in 12 different murine (6-8 week old) syngeneic subcutaneous tumor models. RIP1 inhibition was tested as a single agent in all models, with anti-PD1 combination arms added to the five of the final models.
T and C are the mean tumor volume of the treated and control groups, respectively, on a given day. • 2) Tumor and plasma collection at study end for further investigation.
Cell Culture: The 12 syngeneic cell lines were maintained in vitro with different medium (indicated in Table 3) at 37° C. in an atmosphere of 5% CO2 in air. The tumor cells were routinely subcultured twice weekly. The cells in an exponential growth phase were harvested and counted for tumor inoculation.
Each mouse was inoculated subcutaneously with tumor cells in 0.1 mL of PBS for tumor development. The treatments were started when the mean tumor size reached approximately 80-120 mm^3 (around 100 mm^3).

Row | SMILES | FP Binding Assay (pIC50) (RIP1) | Mean tumor growth inhibition (TGI) at model termination (H-22) [%]
1 | O=C(N[C@H]1CNc2cccc(F)c2NC1=O)c1nnc(Cc2ccccc2F)[nH]1 [Example 1, (S)—N-(9-Fluoro-2-oxo-2,3,4,5-tetrahydro-1H-benzo[b][1,4]diazepin-3-yl)-5-(2-fluorobenzyl)-4H-1,2,4-triazole-3-carboxamide] | 8.0 | –
2 | CN1C(=O)[C@@H](NC(=O)c2n[nH]c(Cc3ccccc3F)n2)CNc2ccccc21 [Example 3, (S)-5-(2-Fluorobenzyl)-N-(1-methyl-2-oxo-2,3,4,5-tetrahydro-1H-benzo[b][1,4]diazepin-3-yl)-1H-1,2,4-triazole-3-carboxamide] | 7.4 | –
3 | N#Cc1cc(N2CCC(C(=O)N3N=CC[C@H]3c3cc(F)cc(F)c3)CC2)ncn1 [Example 6, (S)-6-(4-(5-(3,5-difluorophenyl)-4,5-dihydro-1H-pyrazole-1-carbonyl)piperidin-1-yl)pyrimidine-4-carbonitrile] | – | 19

Reference: patent US20200062735A1, “HETEROCYCLIC AMIDES AS KINASE INHIBITORS” (GlaxoSmithKline Intellectual Property Development Limited, priority 2017, published 2020)
